The values that follow come from patent US20260015364A1, “PIPERAZINE BRIDGE-SUBSTITUTED HETEROCYCLIC PYRIMIDINE COMPOUND” (MEDSHINE DISCOVERY INC., priority 2022, published 2026).

SMILES strings stand for the structures.

The subject of this assay is p-ERK in GP2D cells. The assay can be described thus: p-ERK inhibition test of GP2D cells (HTRF). The format is cell-based. Particulars: Homo sapiens, 1 hour compound incubation. On the procedure:
• 1). GP2D cells are seeded in a transparent 96-well cell culture plate, with 80 μL of cell suspension per well and 8000 cells per well, and the cell plate is incubated in a carbon dioxide incubator at 37° C. overnight; • 2). 2 μL of the compound is added to 78 μL of cell culture medium; after mixing well, 20 μL of the compound solution is taken and added to the corresponding cell plate wells, and the cell plate is put back into the carbon dioxide incubator to incubate for another 1 hour; • 3). After the incubation is completed, the cell supernatant is discarded, and 50 μL of 1× cell lysate is added to each well, and incubated at room temperature for 30 minutes with shaking; • 4). Phospho-ERK1/2 Eu Cryptate antibody and Phospho-ERK1/2 d2 antibody are 20-fold diluted using detection buffer; • 5). […] After the incubation is completed, a multimode microplate reader is used to read HTRF excitation: 320 nm, emission: 615 nm, 665 nm; • 7). The IC50 of the test compound is calculated.
• 1). […] After the incubation was completed, a multimode microplate reader was used to read HTRF excitation: 320 nm, emission: 615 nm, 665 nm; • 7) The IC50 of the test compound was calculated.

As a reminder, the IC50 is the concentration that inhibits the measured activity by half. Low readings indicate greater potency in that assay, high ones weaker potency in that assay. Take `Nc1cc(F)c(C(F)(F)F)c(-c2ncc3c(N4CC5C=CC(C4)N5)nc(OC[C@@]45CCCN4C[C@H](F)C5)nc3c2F)c1` [Compound 1]: inhibition was half-maximal at 4.75 nM (IC50).
